The values below come from ChEMBL document CHEMBL1154294, “An approach to the site-selective diversification of apoptolidin A with peptide-based catalysts” (J Nat Prod, 2009).

The nature of series [1]: Antiproliferative activity against Adenovirus type 12 E1A transformed rat 3Y1cells after 3 days by tetrazolium based cell counting assay. To be noted: 72 h.
Series [2] is described as follows: Antiproliferative activity against rat 3Y1 cells after 3 days by tetrazolium based cell counting assay.
Series [3] has as its target ATP synthase subunit beta, mitochondrial (Saccharomyces cerevisiae S288c, UniProt P00830). The experiment in a line: Inhibition of yeast mitochondrial F0F1-ATPase.
The test system of the next series is NCI-H292. As to the kind of experiment: Cytotoxicity activity in human NCI-H292 cells after 48 hrs by thiazolyl blue tetrazolium bromide assay. Type of series: functional, cell-based. The conditions noted are these: NCI-H292, 48 h.

Sequence of ATP synthase subunit beta, mitochondrial (P00830 whole entry): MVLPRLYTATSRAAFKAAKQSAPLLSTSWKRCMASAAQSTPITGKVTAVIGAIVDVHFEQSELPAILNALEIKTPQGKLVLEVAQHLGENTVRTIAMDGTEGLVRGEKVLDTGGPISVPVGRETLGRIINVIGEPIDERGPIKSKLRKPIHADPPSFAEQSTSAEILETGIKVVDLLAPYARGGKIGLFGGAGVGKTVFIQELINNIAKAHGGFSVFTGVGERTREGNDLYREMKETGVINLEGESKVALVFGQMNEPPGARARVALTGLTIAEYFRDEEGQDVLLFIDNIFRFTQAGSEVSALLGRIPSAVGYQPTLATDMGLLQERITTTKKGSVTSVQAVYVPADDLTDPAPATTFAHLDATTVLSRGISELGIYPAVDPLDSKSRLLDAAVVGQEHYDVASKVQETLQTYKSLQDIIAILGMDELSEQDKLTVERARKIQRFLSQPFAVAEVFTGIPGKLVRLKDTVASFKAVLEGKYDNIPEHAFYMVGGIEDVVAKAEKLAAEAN

As a reminder, the GI50 is the concentration that inhibits growth by half. Low readings indicate more potent growth inhibition, high ones less potent growth inhibition. As a reminder, the IC50 is the point on the concentration scale where inhibition reaches its midpoint. `COC[C@@H](CC1O[C@@](O)([C@H](O)C2CC(=O)/C(C)=C/C(C)=C/C(C)=C/[C@@H](C)[C@H](O[C@@H]3O[C@@H](C)[C@H](OC)[C@@H](O)[C@@H]3OC(=O)c3ccccc3)/C=C/C(C)=C/CC[C@H](O)[C@@H](OC)C2)[C@H](C)[C@@H](O)[C@H]1C)O[C@H]1C[C@](C)(O)[C@@H](O[C@H]2C[C@@H](OC)[C@H](O)[C@@H](C)O2)[C@H](C)O1` (some centres not stated) gave a GI50 in series [1] of 3.6 nM. In series [2], this compound returned a GI50 at 72 h greater than 1000 nM. The same compound gave an IC50 in series [3] of 300 nM.
The corresponding values for `COC[C@@H](CC1O[C@@](O)([C@H](O)C2CC(=O)/C(C)=C/C(C)=C/C(C)=C/[C@@H](C)[C@H](O[C@@H]3O[C@@H](C)[C@H](OC)[C@@H](O)[C@@H]3O)/C=C/C(C)=C/CC[C@H](O)[C@@H](OC)C2)[C@H](C)[C@@H](OC(C)=O)[C@H]1C)O[C@H]1C[C@](C)(O)[C@@H](O[C@H]2C[C@@H](OC)[C@H](OC(C)=O)[C@@H](C)O2)[C@H](C)O1` (some centres not stated) are 9.5 nM, greater than 600 nM and 400 nM.
The corresponding values for `COC[C@@H](CC1O[C@@](O)([C@H](O)C2CC(=O)/C(C)=C/C(C)=C/C(C)=C/[C@@H](C)[C@H](O[C@@H]3O[C@@H](C)[C@H](OC)[C@@H](O)[C@@H]3O)/C=C/C(C)=C/CC[C@H](O)[C@@H](OC)C2)[C@H](C)[C@@H](O)[C@H]1C)O[C@H]1C[C@](C)(O)[C@@H](O[C@H]2C[C@@H](OC)[C@H](OC(C)=O)[C@@H](C)O2)[C@H](C)O1` (some centres not stated) are 9.8 nM, greater than 1000 nM and 800 nM.
As usually defined, the EC50 is the concentration giving half of the maximal effect. `COC[C@@H](CC1O[C@@](O)([C@H](O)C2CC(=O)/C(C)=C/C(C)=C/C(C)=C/[C@@H](C)[C@H](O[C@@H]3O[C@@H](C)[C@H](OC)[C@@H](O)[C@@H]3OC(C)=O)/C=C/C(C)=C/CC[C@H](O)[C@@H](OC)C2)[C@H](C)[C@@H](O)[C@H]1C)O[C@H]1C[C@](C)(O)[C@@H](O[C@H]2C[C@@H](OC)[C@H](O)[C@@H](C)O2)[C@H](C)O1` (some centres not stated) gave an EC50 in the series on NCI-H292 of 60 nM.
Same read-out and setting: for `COC[C@@H](CC1O[C@@](O)([C@H](OC(C)=O)C2CC(=O)/C(C)=C/C(C)=C/C(C)=C/[C@@H](C)[C@H](O[C@@H]3O[C@@H](C)[C@H](OC)[C@@H](O)[C@@H]3OC(C)=O)/C=C/C(C)=C/CC[C@H](O)[C@@H](OC)C2)[C@H](C)[C@@H](O)[C@H]1C)O[C@H]1C[C@](C)(O)[C@@H](O[C@H]2C[C@@H](OC)[C@H](OC(C)=O)[C@@H](C)O2)[C@H](C)O1` (some centres not stated) the value was 48 nM.
The compound `COC[C@@H](CC1O[C@@](O)([C@H](O)C2CC(=O)/C(C)=C/C(C)=C/C(C)=C/[C@@H](C)[C@H](O[C@@H]3O[C@@H](C)[C@H](OC)[C@@H](OC(C)=O)[C@@H]3O)/C=C/C(C)=C/CC[C@H](O)[C@@H](OC)C2)[C@H](C)[C@@H](O)[C@H]1C)O[C@H]1C[C@](C)(O)[C@@H](O[C@H]2C[C@@H](OC)[C@H](O)[C@@H](C)O2)[C@H](C)O1` (some centres not stated) displayed a concentration for 50% growth inhibition (GI50) in series [1] of 2.7 nM. Further, in series [2], the GI50 at 72 h was greater than 1000 nM. The same compound displayed a 50% inhibitory concentration (IC50) in series [3] of 400 nM.
For `COC[C@@H](CC1O[C@@](O)([C@H](OC(C)=O)C2CC(=O)/C(C)=C/C(C)=C/C(C)=C/[C@@H](C)[C@H](O[C@@H]3O[C@@H](C)[C@H](OC)[C@@H](OC(C)=O)[C@@H]3OC(C)=O)/C=C/C(C)=C/CC[C@H](O)[C@@H](OC)C2)[C@H](C)[C@@H](O)[C@H]1C)O[C@H]1C[C@](C)(O)[C@@H](O[C@H]2C[C@@H](OC)[C@H](O)[C@@H](C)O2)[C@H](C)O1` (some centres not stated), in the series with NCI-H292, a half-maximal response (EC50) required 48 nM.
`COC[C@@H](CC1O[C@@](O)([C@H](OC(C)=O)C2CC(=O)/C(C)=C/C(C)=C/C(C)=C/[C@@H](C)[C@H](O[C@@H]3O[C@@H](C)[C@H](OC)[C@@H](O)[C@@H]3O)/C=C/C(C)=C/CC[C@H](O)[C@@H](OC)C2)[C@H](C)[C@@H](O)[C@H]1C)O[C@H]1C[C@](C)(O)[C@@H](O[C@H]2C[C@@H](OC)[C@H](O)[C@@H](C)O2)[C@H](C)O1` (some centres not stated) displayed a GI50 in series [1] of 11 nM. Moreover, the GI50 at 72 h in series [2] was greater than 1000 nM. Besides, the midpoint of inhibition in series [3], the IC50, lay at 1100 nM.
The corresponding values for `COC[C@@H](CC1O[C@@](O)([C@H](OC)C2CC(=O)/C(C)=C/C(C)=C/C(C)=C/[C@@H](C)[C@H](O[C@@H]3O[C@@H](C)[C@H](OC)[C@@H](O)[C@@H]3O)/C=C/C(C)=C/CC[C@H](O)[C@@H](OC)C2)[C@H](C)[C@@H](O)[C@H]1C)O[C@H]1C[C@](C)(O)[C@@H](O[C@H]2C[C@@H](OC)[C@H](O)[C@@H](C)O2)[C@H](C)O1` (some centres not stated) are 12 nM, greater than 1000 nM and 2800 nM.
The corresponding values for `COC[C@@H](CC1O[C@@](O)([C@H](O)C2CC(=O)/C(C)=C/C(C)=C/C(C)=C/[C@@H](C)[C@H](O[C@@H]3O[C@@H](C)[C@H](OC)[C@@H](O)[C@@H]3O)/C=C/C(C)=C/CC[C@H](OC(C)=O)[C@@H](OC)C2)[C@H](C)[C@@H](O)[C@H]1C)O[C@H]1C[C@](C)(O)[C@@H](O[C@H]2C[C@@H](OC)[C@H](O)[C@@H](C)O2)[C@H](C)O1` (some centres not stated) are 56 nM, greater than 1000 nM and 800 nM.
`COC[C@@H](CC1O[C@@](O)([C@@H]2OC(=O)/C(C)=C/C(C)=C/C(C)=C/[C@@H](C)[C@H](O[C@@H]3O[C@@H](C)[C@H](OC)[C@@H](O)[C@@H]3O)/C=C/C(C)=C/CC[C@H](O)[C@@H](OC)C[C@@H]2O)[C@H](C)[C@@H](O)[C@H]1C)O[C@H]1C[C@](C)(O)[C@@H](O[C@H]2C[C@@H](OC)[C@H](O)[C@@H](C)O2)[C@H](C)O1` (some centres not stated) [ISOAPOPTOLIDIN] yielded a GI50 in series [1] of 9 nM. This compound also registered a GI50 at 72 h in series [2] greater than 1000 nM. This compound had an IC50 in series [3] of 17000 nM.
